# Reference: US8450313B2, “2,3-diaryl- or heteroaryl-substituted 1,1,1-trifluoro-2-hydroxypropyl compounds” (Hoffmann-La Roche Inc., priority 2009, dated 2013)
# Molecular target: T1, full length human recombinant glucocorticoid receptor (Homo sapiens, UniProt P04150)
# T1 construct: It contains some partially purified full length human recombinant glucocorticoid receptor; purchased Panvera/Invitrogen PV4302
# T1 sequence (P04150 1-777): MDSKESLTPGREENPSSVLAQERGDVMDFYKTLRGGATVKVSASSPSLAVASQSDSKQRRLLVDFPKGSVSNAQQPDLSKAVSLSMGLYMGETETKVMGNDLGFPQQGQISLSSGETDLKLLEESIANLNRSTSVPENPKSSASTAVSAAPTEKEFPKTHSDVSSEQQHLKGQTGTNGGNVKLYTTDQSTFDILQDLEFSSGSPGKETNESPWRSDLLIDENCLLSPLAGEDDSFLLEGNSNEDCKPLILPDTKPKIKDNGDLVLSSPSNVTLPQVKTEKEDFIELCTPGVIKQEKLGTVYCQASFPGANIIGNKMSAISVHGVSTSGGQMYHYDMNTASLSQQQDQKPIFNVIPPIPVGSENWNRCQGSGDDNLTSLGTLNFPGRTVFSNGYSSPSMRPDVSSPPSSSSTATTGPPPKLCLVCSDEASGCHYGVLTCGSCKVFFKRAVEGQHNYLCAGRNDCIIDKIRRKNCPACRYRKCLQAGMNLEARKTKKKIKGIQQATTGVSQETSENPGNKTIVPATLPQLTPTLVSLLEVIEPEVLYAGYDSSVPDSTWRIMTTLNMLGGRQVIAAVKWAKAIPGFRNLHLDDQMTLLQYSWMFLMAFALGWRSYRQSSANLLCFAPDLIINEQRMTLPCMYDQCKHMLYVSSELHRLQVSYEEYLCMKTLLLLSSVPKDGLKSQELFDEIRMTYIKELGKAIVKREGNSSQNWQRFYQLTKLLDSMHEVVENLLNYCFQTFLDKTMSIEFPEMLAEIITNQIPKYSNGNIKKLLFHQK
# Assay: Glucocorticoid Receptor Binding Assay (Glucocorticoid Receptor Competitor Assay far red kit, fluorescence polarization)
# Details: competition with fluorescent GR ligand Fluormone GS Far Red, 3 hours at 22° C., pH 7.4; Ki calculated from IC50 by Cheng-Prusoff
# Method in brief: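 Fluorescence polarization competition with partially purified full-length human recombinant GR, stabilizing peptide and Fluormone GS Far Red tracer in screening buffer pH 7.4; 3 hours at 22° C in the dark, read at 610–660 nm. IC50 from sigmoidal fit; Ki by Cheng-Prusoff.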
row,Compound,Ki
1,"COc1cc(-c2ccc([C@@H](C)[C@@](O)(c3ccc4oc(=O)n(C)c4c3)C(F)(F)F)c(Cl)c2)ccc1C(=O)O (stereo in doubt) [Example 132, 3′-Chloro-3-methoxy-4′-[3,3,3-trifluoro-2-hydroxy-1-methyl-2-(3-methyl-2-oxo-2,3-dihydro-benzooxazol-5-yl)-propyl]-biphenyl-4-carboxylic acid]",3 nM
2,"C[C@@H](c1ccc(-c2ccc(C(=O)O)c(F)c2)cc1Cl)[C@](O)(c1cc2c(cc1F)OCC(=O)N2C)C(F)(F)F (stereo in doubt) [Example 137, 3′-Chloro-3-fluoro-4′-[3,3,3-trifluoro-2-(7-fluoro-4-methyl-3-oxo-3,4-dihydro-2H-benzo[1,4]oxazin-6-yl)-2-hydroxy-1-methyl-propyl]-biphenyl-4-carboxylic acid]",20 nM
3,"C[C@@H](c1ccc(Oc2ccc(C(=O)O)c(Cl)c2)cc1Cl)[C@](O)(c1cc2c(cc1F)OCC(=O)N2C)C(F)(F)F (stereo in doubt) [Example 139, 2-Chloro-4-{3-chloro-4-[3,3,3-trifluoro-2-(7-fluoro-4-methyl-3-oxo-3,4-dihydro-2H-benzo[1,4]oxazin-6-yl)-2-hydroxy-1-methyl-propyl]-phenoxy}-benzoic acid]",2.7 nM
4,"C[C@H](c1ccc(Oc2ccc(C(=O)O)c(Cl)c2)cc1Cl)[C@@](O)(c1ccc2[nH]c(=O)cc(C(F)(F)F)c2c1)C(F)(F)F (stereo in doubt) [Example 140, 2-Chloro-4-{3-chloro-4-[3,3,3-trifluoro-2-hydroxy-1-methyl-2-(2-oxo-4-trifluoromethyl-1,2-dihydro-quinolin-6-yl)-propyl]-phenoxy}-benzoic acid]",22 nM
5,"Cc1cc([C@@](O)([C@@H](C)c2ccc(Oc3ccc(C(=O)O)c(F)c3)cc2Cl)C(F)(F)F)cc(C)c1C#N (stereo in doubt) [Example 142, 4-{3-Chloro-4-[2-(4-cyano-3,5-dimethyl-phenyl)-3,3,3-trifluoro-2-hydroxy-1-methyl-propyl]-phenoxy}-2-fluoro-benzoic acid]",2.1 nM
6,"COC(=O)c1ccc(Oc2ccc([C@H](C)[C@](O)(c3cc(C)c(C#N)c(C)c3)C(F)(F)F)c(Cl)c2)cc1Cl (stereo in doubt) [Example 143, 2-Chloro-4-{3-chloro-4-[2-(4-cyano-3,5-dimethyl-phenyl)-3,3,3-trifluoro-2-hydroxy-1-methyl-propyl]-phenoxy}-benzoic acid methyl ester]",1.7 nM
7,"COC(=O)c1cnc(Oc2ccc([C@H](C)[C@](O)(c3cc(C)c(C#N)c(C)c3)C(F)(F)F)c(Cl)c2)cc1C(F)(F)F (stereo in doubt) [Example 145, 6-{3-Chloro-4-[2-(4-cyano-3,5-dimethyl-phenyl)-3,3,3-trifluoro-2-hydroxy-1-methyl-propyl]phenoxy}-4-trifluoromethyl-nicotinic acid methyl ester]",3.1 nM
8,"COC(=O)c1ccc(Oc2ccc([C@H](C)[C@](O)(c3cc(C)c(C#N)c(C)c3)C(F)(F)F)c(Cl)c2)nc1 (stereo in doubt) [Example 147, 6-{3-Chloro-4-[2-(4-cyano-3,5-dimethyl-phenyl)-3,3,3-trifluoro-2-hydroxy-1-methyl-propyl]-phenoxy}-nicotinic acid methyl ester]",2.8 nM
9,"COC(=O)c1cnc(Oc2ccc([C@H](C)[C@](O)(c3cc(C)c(C#N)c(C)c3)C(F)(F)F)c(Cl)c2)c(Cl)c1 (stereo in doubt) [Example 149, 5-Chloro-6-{3-chloro-4-[2-(4-cyano-3,5-dimethyl-phenyl)-3,3,3-trifluoro-2-hydroxy-1-methyl-propyl]-phenoxy}-nicotinic acid methyl ester]",1.7 nM
10,"C[C@H](c1ccc(-c2ccc(F)c(C(=O)O)c2)cc1Cl)[C@@](O)(c1ccc(C#N)cc1)C(F)(F)F (stereo in doubt) [Example 151, 3′-Chloro-4′-[2-(4-cyano-phenyl)-3,3,3-trifluoro-2-hydroxy-1-methyl-propyl]-4-fluoro-biphenyl-3-carboxylic acid]",18.5 nM
11,"C[C@H](c1ccc(-c2ccc(F)c(C(=O)O)c2)cc1Cl)[C@@](O)(c1cccc(C#N)c1)C(F)(F)F (stereo in doubt) [Example 154, 3′-Chloro-4′-[2-(3-cyano-phenyl)-3,3,3-trifluoro-2-hydroxy-1-methyl-propyl]-4-fluoro-biphenyl-3-carboxylic acid]",33.7 nM
12,"C[C@H](c1ccc(Oc2ccc(C(=O)O)cn2)cc1Cl)[C@@](O)(c1ccc(C#N)cc1)C(F)(F)F (stereo in doubt) [Example 157, 6-{3-Chloro-4-[2-(4-cyano-phenyl)-3,3,3-trifluoro-2-hydroxy-1-methyl-propyl]-phenoxy}-nicotinic acid]",19.8 nM
13,"C[C@H](c1ccc(-c2ccc(C(=O)O)c(F)c2)cc1Cl)[C@@](O)(c1ccc2c(c1)OCC(=O)N2C)C(F)(F)F (stereo in doubt) [Example 164, 3′-Chloro-3-fluoro-4′-[3,3,3-trifluoro-2-hydroxy-1-methyl-2-(4-methyl-3-oxo-3,4-dihydro-2H-benzo[1,4]oxazin-7-yl)-propyl]-biphenyl-4-carboxylic acid]",7.5 nM
14,"C[C@H](c1ccc(Oc2ccc(C(=O)O)c(F)c2)cc1Cl)[C@@](O)(c1ccc2c(c1)OCC(=O)N2C)C(F)(F)F (stereo in doubt) [Example 166, 4-{3-Chloro-4-[3,3,3-trifluoro-2-hydroxy-1-methyl-2-(4-methyl-3-oxo-3,4-dihydro-2H-benzo[1,4]oxazin-7-yl)-propyl]phenoxy}-2-fluoro-benzoic acid]",2.7 nM
15,"C[C@H](c1ccc(-c2ccc(C(=O)O)c(F)c2)cc1Cl)[C@@](O)(c1ccc2c(c1)N(C)CCO2)C(F)(F)F (stereo in doubt) [Example 170, 3′-Chloro-3-fluoro-4′-[3,3,3-trifluoro-2-hydroxy-1-methyl-2-(4-methyl-3,4-dihydro-2H-benzo[1,4]oxazin-6-yl)-propyl]-biphenyl-4-carboxylic acid]",210 nM

# These reach a lower Ki. Values come first.
row,Ki,Compound
1,1.6 nM,"Cc1cc([C@@](O)([C@@H](C)c2ccc(Oc3ccc(C(=O)O)cn3)cc2Cl)C(F)(F)F)cc(C)c1C#N (stereo in doubt) [Example 148, 6-{3-Chloro-4-[2-(4-cyano-3,5-dimethyl-phenyl)-3,3,3-trifluoro-2-hydroxy-1-methyl-propyl]-phenoxy}-nicotinic acid]"
2,1.4 nM,"Cc1cc([C@@](O)([C@@H](C)c2ccc(Oc3cc(C(F)(F)F)c(C(=O)O)cn3)cc2Cl)C(F)(F)F)cc(C)c1C#N (stereo in doubt) [Example 146, 6-{3-Chloro-4-[2-(4-cyano-3,5-dimethyl-phenyl)-3,3,3-trifluoro-2-hydroxy-1-methyl-propyl]-phenoxy}-4-trifluoromethyl-nicotinic acid]"
3,1.3 nM,"Cc1cc([C@@](O)([C@@H](C)c2ccc(Oc3ncc(C(=O)O)cc3Cl)cc2Cl)C(F)(F)F)cc(C)c1C#N (stereo in doubt) [Example 150, 5-Chloro-6-{3-chloro-4-[2-(4-cyano-3,5-dimethyl-phenyl)-3,3,3-trifluoro-2-hydroxy-1-methyl-propyl]-phenoxy}-nicotinic acid]"
4,0.9 nM,"C[C@H](c1ccc(Oc2ncc(C(=O)O)cc2Cl)cc1Cl)[C@@](O)(c1ccc2c(c1)OCC(=O)N2C)C(F)(F)F (stereo in doubt) [Example 165, 5-Chloro-6-{3-chloro-4-[3,3,3-trifluoro-2-hydroxy-1-methyl-2-(4-methyl-3-oxo-3,4-dihydro-2H-benzo[1,4]oxazin-7-yl)-propyl]-phenoxy}-nicotinic acid]"
5,0.7 nM,"COC(=O)c1ccc(-c2ccc([C@@H](C)[C@@](O)(c3ccc4oc(=O)n(C)c4c3)C(F)(F)F)c(Cl)c2)nc1 (stereo in doubt) [Example 127, 6-{3-Chloro-4-[3,3,3-trifluoro-2-hydroxy-1-methyl-2-(3-methyl-2-oxo-2,3-dihydro-benzooxazol-5-yl)-propyl]-phenyl}-nicotinic acid methyl ester]"
6,0.5 nM,"C[C@H](c1ccc(-c2ccc(OCC(=O)O)cc2)cc1Cl)[C@@](O)(c1ccc2oc(=O)n(C)c2c1)C(F)(F)F (stereo in doubt) [Example 130, {3′-Chloro-4′-[3,3,3-trifluoro-2-hydroxy-1-methyl-2-(3-methyl-2-oxo-2,3-dihydro-benzooxazol-5-yl)-propyl]-biphenyl-4-yloxy}-acetic acid]"
7,0.4 nM,"COc1ccc([C@@H](C)[C@@](O)(c2ccc3oc(=O)n(C)c3c2)C(F)(F)F)c(Cl)c1 (stereo in doubt) [Example 171, 5-[2-(2-Chloro-4-methoxy-phenyl)-1-hydroxy-1-trifluoromethyl-propyl]-3-methyl-3H-benzooxazol-2-one]"
